Results on two molecules are retold here after patent US4264736A, “Antibiotic 890A10” (Merck & Co., Inc., priority 1979, dated 1981).

Data set [1] is described as follows: Hydroxylamine reaction (A300 decrease). The data set is classed as physicochemical. The source says: The disodium salt of antibiotic 890A10 has an absorption maximum at 299 nm and a minimum at 243 nm at neutral pH in water. The E% at 300 nm of the most highly purified preparation of disodium salt is 214. The ratio A300 /A250 is 3.33 for the most purified sample, and the ratio A300 /A220 is 2.05. […] More than 94% of the absorption at 300 nm can be extinguished by reaction with hydroxylamine at neutral pH. The absorbance at 250 nm also decreases upon reaction with hydroxylamine, and the ratio of the absorbance decrease at 250 nm to the decrease at 300 nm, is approximately 0.16. […]
Antibiotic 890A10 reacts with hydroxylamine and produces a substance with greatly diminished absorbance at 300 nm. This provides the basis for a quantitative assay of the antibiotic 890A10.
The solution to be assayed is brought to 0.05 M in potassium phosphate, pH 7.4 by adding 1/20th volume of a solution containing 0.8 M K2 HPO4 and 0.2 M KH2 PO4 . Then one-hundredth volume of 1 M hydroxylamine hydrochloride is added, and the absorbance at 300 nm is measured at intervals of one-half to two minutes. […] First-order kinetics are assumed and a half-life is estimated from the absorbance decrease during the first ten minutes. From this half-life, the time is estimated beyond which no further absorbance decrease should be observed and observations are continued beyond that time. […]

In data set [2] the test system is Vibrio percolans ATCC 8461. The experiment in a line: 890 Assay Units, agar plate disc-diffusion, cephaloridine standard. It is filed as cell-based. How it is done: II. Assay Procedure for Determining "890 Assay Units"
A conventional agar plate disc-diffusion method is employed using Vibrio percolans ATCC 8461 as tester organism. Cephaloridine is employed as a standard. Plates containing Vibrio percolans ATCC 8461 are prepared as follows. A culture of Vibrio percolans ATCC 8461 is incubated in nutrient broth-yeast extract overnight on a rotary shaker at 28° C. and then diluted to a density of 60% transmittance at 660 nm. A 33.2 ml. portion of this diluted culture is added to 1 liter of a medium composed of nutrient agar plus 0.2% yeast extract maintained at 46° C. The inoculated agar-containing medium is poured into 100×15 mn. plastic-petri dishes, 10 ml. per dish, chilled, and maintained at 2°-4° C. for up to 5 days before use.
The concentration of cephaloridine which is equivalent to 1 unit/ml. of 890A1 is determined by assay on plates prepared as above, but containing 5 ml. of inoculated medium per plate, as follows. Four concentrations of cephaloridine constitute the standard--3.12, 6.25, 12.5 and 25 mcg per ml. with the 12.5 mcg per ml. as a reference solution. The zone diameters on a 5 ml. plate for the standard are as follows:
A unit is defined as the amount of antibiotic per ml. producing a 25 mm. zone of inhibition on a 5 ml. plate as described in section I above. Therefore, in this assay a concentration of 12.5 mcg per ml. of cephaloridine is considered equivalent to 1 unit of 890A1 per ml. Since the slope of the line for cephaloridine is 4.0 calculations of the potency of a sample are made using a slope of 4.0
A general note: A growth-free zone around the sample is the usual read-out of agar diffusion tests.

Structures can show the parent of a compound that is named as a salt.

As to `CC(=O)NCCSC1=C(C(=O)O)N2C(=O)C(C(C)OS(=O)(=O)O)C2C1` (stereo not shown) [disodium salt of antibiotic 890A10], the “absorption at 300 nm extinguished by reaction with hydroxylamine” value in data set [1] (neutral pH) is given as “More than 94%”. Moreover, the “half-life of reaction with hydroxylamine” value in data set [1] (room temperature, apparently first order, A300 decrease, pH 7.4) was in the range of 23 to 60 s.
Regarding `O=C(Cc1cccs1)N[C@@H]1C(=O)N2C(C(=O)[O-])=C(C[n+]3ccccc3)CS[C@H]12` [cephaloridine], in data set [2] (25 mm zone of inhibition on a 5 ml plate), the “concentration equivalent to 1 unit of 890A1 per ml” value was determined as 12.5 mcg per ml. In addition, the zone of inhibition at 3.12 µg/mL in data set [2] (Comamonas terrigena, ATCC8461, 3.12 mcg/ml, 5 ml plate, read-out: Zone Diameter) came out at 16.8 mm. Moreover, the zone of inhibition at 6.25 µg/mL in data set [2] (Comamonas terrigena, ATCC8461, 6.25 mcg/ml, 5 ml plate, read-out: Zone Diameter) was 22.3 mm. Besides, the zone of inhibition at 12.5 µg/mL in data set [2] (Comamonas terrigena, ATCC8461, 12.5 mcg/ml (reference solution), 5 ml plate, read-out: Zone Diameter) turned out to be 25 mm. Also, the zone of inhibition at 25 µg/mL in data set [2] (Comamonas terrigena, ATCC8461, 25 mcg/ml, 5 ml plate, read-out: Zone Diameter) stood at 29.6 mm.
